Measurements published in ChEMBL document CHEMBL3734758, “Protective effects of 5,7,4'-trihydroxy-6,3'dimethoxy-flavone 5-O-α-l-rhamnopyranoside, isolated from Annona squamosa leaves in thyrotoxicosis and in hepatic lipid peroxidation in rats” (Bioorg Med Chem Lett, 2015).
Calls of active or inactive are those of the source. The calls are words filed in the database; no cut-off is given here.

Key:
Rattus norvegicus [1] = assay: Inhibition of L-T4-induced decrease in GSH level in albino Wistar rat liver at 5 mg/kg/day, po cotreated with 0.5 mg/kg L-T4 for 15 days; assay type: functional, organism-based
Rattus norvegicus [2] = assay: Inhibition of L-T4-induced decrease in catalase activity in albino Wistar rat liver assessed as H2O2 decomposition at 5 mg/kg/day, po cotreated with 0.5 mg/kg L-T4 for 15 days by spectrophotmetry; assay type: functional, organism-based
Rattus norvegicus [3] = assay: Inhibition of L-T4-induced decrease in SOD activity in albino Wistar rat liver at 5 mg/kg/day, po cotreated with 0.5 mg/kg L-T4 for 15 days; assay type: functional, organism-based
Rattus norvegicus [4] = assay: Toxicity in albino Wistar rat assessed as high-density lipoprotein cholesterol level at 5 mg/kg/day, po for 15 days (reference value: 45.52 +/- 3.08 mg/dl); assay type: organism-based; details: in vivo, 360 h
Rattus norvegicus [5] = assay: Toxicity in albino Wistar rat assessed as low-density lipoprotein cholesterol level at 5 mg/kg/day, po for 15 days (reference value: 83.85 +/- 2.96 mg/dl); assay type: organism-based; details: in vivo, 360 h
Rattus norvegicus [6] = assay: Toxicity in albino Wistar rat assessed as triglyceride level at 5 mg/kg/day, po for 15 days (reference value: 73.33 +/- 3.1 mg/dl); assay type: organism-based; details: in vivo, 360 h
Rattus norvegicus [7] = assay: Toxicity in albino Wistar rat assessed as total cholesterol level at 5 mg/kg/day, po for 15 days (reference value: 114.97 +/- 4.76 mg/dl); assay type: organism-based; details: in vivo, 360 h
Rattus norvegicus [8] = assay: Inhibition of L-T4-induced decrease in high-density lipoprotein cholesterol in albino Wistar rat at 5 mg/kg/day, po cotreated with 0.5 mg/kg L-T4 for 15 days (reference value: 20.18 +/- 2.32 mg/dl); assay type: functional
Rattus norvegicus [9] = assay: Inhibition of L-T4-induced decrease in low-density lipoprotein cholesterol in albino Wistar rat at 5 mg/kg/day, po cotreated with 0.5 mg/kg L-T4 for 15 days (reference value: 31.68 +/- 4.25 mg/dl); assay type: functional
Rattus norvegicus [10] = assay: Inhibition of L-T4-induced decrease in triglyceride level in albino Wistar rat at 5 mg/kg/day, po cotreated with 0.5 mg/kg L-T4 for 15 days (reference value: 42.15 +/- 3.23 mg/dl); assay type: functional
Rattus norvegicus [11] = assay: Inhibition of L-T4-induced loss of body weight in albino Wistar rat assessed as increase in body weight at 5 mg/kg/day, po cotreated with 0.5 mg/kg L-T4 for 15 days […]; assay type: functional, organism-based
Rattus norvegicus [12] = assay: Inhibition of L-T4-induced increase in hepatic 5-monodeiodinase-l activity in albino Wistar rat assessed as T3 formation at 5 mg/kg/day, po cotreated with 0.5 mg/kg L-T4 for 15 days by RIA; assay type: functional, organism-based
Rattus norvegicus [13] = assay: Inhibition of L-T4-induced increase in T4 level in albino Wistar rat at 5 mg/kg/day, po cotreated with 0.5 mg/kg L-T4 for 15 days by RIA (reference value: 112.86 +/- 4.77 ng/ml); assay type: functional
Rattus norvegicus [14] = assay: Inhibition of L-T4-induced increase in T4 level in albino Wistar rat at 2.5 mg/kg/day, po cotreated with 0.5 mg/kg L-T4 for 15 days by RIA (reference value: 112.86 +/- 4.77 ng/ml); assay type: functional
Rattus norvegicus [15] = assay: Inhibition of L-T4-induced increase in T3 level in albino Wistar rat at 10 mg/kg/day, po cotreated with 0.5 mg/kg L-T4 for 15 days by RIA (reference value: 1.55 +/- 0.131 ng/ml); assay type: functional
Rattus norvegicus [16] = assay: Inhibition of L-T4-induced increase in T3 level in albino Wistar rat at 2.5 mg/kg/day, po cotreated with 0.5 mg/kg L-T4 for 15 days by RIA (reference value: 1.55 +/- 0.131 ng/ml); assay type: functional
Rattus norvegicus [17] = assay: Inhibition of L-T4-induced increase in lipid peroxidation in albino Wistar rat assessed as malondialdehyde formed per mg of protein at 10 mg/kg/day, po cotreated with 0.5 mg/kg L-T4 for 15 days (reference value: 0.977 +/- 0.035 nM/hr); assay type: functional
Rattus norvegicus [18] = assay: Inhibition of L-T4-induced increase in lipid peroxidation in albino Wistar rat assessed as malondialdehyde formed per mg of protein at 5 mg/kg/day, po cotreated with 0.5 mg/kg L-T4 for 15 days (reference value: 0.977 +/- 0.035 nM/hr); assay type: functional
Rattus norvegicus [19] = assay: Inhibition of L-T4-induced increase in lipid peroxidation in albino Wistar rat assessed as malondialdehyde formed per mg of protein at 2.5 mg/kg/day, po cotreated with 0.5 mg/kg L-T4 for 15 days (reference value: 0.977 +/- 0.035 nM/hr); assay type: functional
Rattus norvegicus [20] = assay: Inhibition of L-T4-induced decrease in very low-density lipoprotein cholesterol in albino Wistar rat at 5 mg/kg/day, po cotreated with 0.5 mg/kg L-T4 for 15 days (reference value: 8.65 +/- 2.76 mg/dl); assay type: functional
Rattus norvegicus [21] = assay: Inhibition of L-T4-induced increase in T4 level in albino Wistar rat at 10 mg/kg/day, po cotreated with 0.5 mg/kg L-T4 for 15 days by RIA (reference value: 112.86 +/- 4.77 ng/ml); assay type: functional
Rattus norvegicus [22] = assay: Inhibition of L-T4-induced increase in T3 level in albino Wistar rat at 5 mg/kg/day, po cotreated with 0.5 mg/kg/day L-T4 for 15 days by RIA (reference value: 1.55 +/- 0.131 ng/ml); assay type: functional
Rattus norvegicus [23] = assay: Toxicity in albino Wistar rat assessed as very low-density lipoprotein cholesterol level at 5 mg/kg/day, po for 15 days (reference value: 14.85 +/- 2.43 mg/dl); assay type: organism-based; details: in vivo, 360 h
Rattus norvegicus [24] = assay: Inhibition of L-T4-induced decrease in total cholesterol level in albino Wistar rat at 5 mg/kg/day, po cotreated with 0.5 mg/kg L-T4 for 15 days (reference value: 58.77 +/- 3.95 mg/dl); assay type: functional
Rattus norvegicus [25] = assay: Inhibition of L-T4-induced increase in Glucose-6-phosphate activity in albino Wistar rat at 5 mg/kg/day, po cotreated with 0.5 mg/kg L-T4 for 15 days […]; assay type: functional, organism-based

COc1cc(-c2cc(=O)c3c(O[C@@H]4O[C@@H](C)[C@H](O)[C@@H](O)[C@H]4O)c(OC)c(O)cc3o2)ccc1O
inhibition (Rattus norvegicus [1]): Active | inhibition (Rattus norvegicus [2]): Active | inhibition (Rattus norvegicus [3]): Active | Activity (Rattus norvegicus [4]): 48.97 mg/dL | Activity (Rattus norvegicus [5]): 60.16 mg/dL | Activity (Rattus norvegicus [6]): 61.1 mg/dL | Activity (Rattus norvegicus [7]): 96.22 mg/dL | Activity (Rattus norvegicus [8]): 40.95 mg/dL | Activity (Rattus norvegicus [9]): 72.42 mg/dL | Activity (Rattus norvegicus [10]): 68.31 mg/dL | Activity (Rattus norvegicus [11]): Active | inhibition (Rattus norvegicus [12]): Active | Activity (Rattus norvegicus [13]): 56.7 ng/mL | Activity (Rattus norvegicus [14]): 98.6 ng/mL | Activity (Rattus norvegicus [15]): 1.39 ng/mL | Activity (Rattus norvegicus [16]): 1.01 ng/mL | Activity (Rattus norvegicus [17]): 0.512 nM/h | Activity (Rattus norvegicus [18]): 0.239 nM/h | Activity (Rattus norvegicus [19]): 0.619 nM/h | Activity (Rattus norvegicus [20]): 14.09 mg/dL | Activity (Rattus norvegicus [21]): 102.45 ng/mL | Activity (Rattus norvegicus [22]): 0.43 ng/mL | Activity (Rattus norvegicus [23]): 12.91 mg/dL | Activity (Rattus norvegicus [24]): 98.14 mg/dL | inhibition (Rattus norvegicus [25]): Active
